Results reported in the supplement of paper PMC10307832.

Experiments:
Experiment in all cases: relative viability (nuclei count vs DMSO), 5 days (fraction); higher = more cells survive
[1] = compound: CN1CCC(CNc2ccc3ncc(-c4cccc(OC(F)(F)F)c4)n3n2)CC1 [SGI-1776] + CC(=O)Nc1cccc(-n2c(=O)n(C3CC3)c(=O)c3c(Nc4ccc(I)cc4F)n(C)c(=O)c(C)c32)c1 [Trametinib] (partner 0.02 µM)
Outline: (§1)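 Nuclei were stained with Hoechst during a one-step fixation (final 0.05% Triton X-100, 1% formaldehyde, 1 ug/ml Hoechst) carried out 5 days after dosing, then counted on 4× images. The cells, lung cancer lines in 1536-well plates, had been dosed by pin tool the day after seeding with one drug alone or a fixed anchor-drug dose plus five library-drug doses (not always all listed) in √10 steps. Relative viability is the nuclei count in treated wells divided by that in vehicle wells, and each value is the median of duplicate plates.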

[2] = compound: Nc1ccccc1NC(=O)c1ccc(CNC(=O)OCc2cccnc2)cc1 [Entinostat] + NC(=O)Nc1cc(-c2cccc(F)c2)sc1C(=O)N[C@H]1CCCNC1 [AZD7762] (partner 0.2 µM)
Outline: as §1

[3] = compound: C1COCCN1C2=NC(=NC3=C2OC4=C3C=CC=N4)C5=CC(=CC=C5)NC(=O)C6=CN=C(C=C6)N + CC(=O)Nc1cccc(-n2c(=O)n(C3CC3)c(=O)c3c(Nc4ccc(I)cc4F)n(C)c(=O)c(C)c32)c1 [Trametinib] (partner 0.02 µM)
Outline: as §1

[4] = compound: Nc1ccccc1NC(=O)c1ccc(CNC(=O)OCc2cccnc2)cc1 [Entinostat] + O=C(c1cc(Cc2n[nH]c(=O)c3ccccc23)ccc1F)N1CCN(C(=O)C2CC2)CC1 [Olaparib] (partner 8 µM)
Outline: as §1

Row | Cell Line | relative viability ([1]; first compound 0.08 µM) | relative viability ([1]; first compound 0.8 µM) | relative viability ([1]; first compound 2.53 µM) | relative viability ([1]; first compound 8 µM) | relative viability ([2]; first compound 0.02 µM) | relative viability ([2]; first compound 0.06325 µM) | relative viability ([2]; first compound 0.2 µM) | relative viability ([2]; first compound 0.6325 µM) | relative viability ([2]; first compound 2 µM) | relative viability ([3]; first compound 0.02 µM) | relative viability ([3]; first compound 0.06325 µM) | relative viability ([3]; first compound 0.2 µM) | relative viability ([3]; first compound 0.6325 µM) | relative viability ([3]; first compound 2 µM) | relative viability ([4]; first compound 0.02 µM) | relative viability ([4]; first compound 0.06325 µM) | relative viability ([4]; first compound 0.2 µM) | relative viability ([4]; first compound 0.6325 µM) | relative viability ([4]; first compound 2 µM)
1 | HCC-827 | 0.578 | 0.534 | 0.578 | 0.464 | 0.247 | 0.244 | 0.159 | 0.203 | 0.159 | 0.488 | 0.573 | 0.459 | 0.483 | 0.408 | 0.587 | 0.623 | 0.488 | 0.322 | 0.237
2 | HOP-62 | 0.384 | 0.359 | 0.437 | 0.367 | 0.535 | 0.711 | 0.545 | 0.222 | 0.15 | 0.403 | 0.415 | 0.323 | 0.359 | 0.227 | 0.36 | 0.391 | 0.373 | 0.147 | 0.128
3 | IA-LM |  |  |  |  |  |  |  |  |  |  |  |  |  |  | 0.807 | 0.845 | 0.871 | 0.693 | 0.536
4 | LC-2-ad | 0.885 | 0.926 | 0.931 | 0.822 | 0.884 | 0.853 | 0.759 | 0.497 | 0.257 | 0.959 | 0.983 | 0.962 | 0.899 | 0.654 | 0.785 | 0.635 | 0.633 | 0.527 | 0.3
5 | LCLC-97TM1 | 0.216 | 0.205 | 0.195 | 0.199 | 0.246 | 0.283 | 0.283 | 0.281 | 0.243 | 0.187 | 0.205 | 0.204 | 0.169 | 0.134 | 0.476 | 0.402 | 0.41 | 0.32 | 0.364
6 | LCLC-103H | 0.658 | 0.689 | 0.633 | 0.642 | 0.818 | 0.866 | 0.719 | 0.474 | 0.432 | 0.66 | 0.693 | 0.693 | 0.62 | 0.479 | 0.748 | 0.738 | 0.684 | 0.528 | 0.447
7 | LK-2 | 0.778 | 0.69 | 0.63 | 0.708 | 0.481 | 0.623 | 0.5 | 0.345 | 0.21 | 0.787 | 0.798 | 0.637 | 0.583 | 0.426 | 0.857 | 0.904 | 0.584 | 0.475 | 0.239
8 | LOU-NH91 | 0.808 | 0.766 | 0.806 | 0.695 | 0.729 | 0.807 | 0.735 | 0.664 | 0.653 | 0.78 | 0.816 | 0.828 | 0.782 | 0.716 | 0.863 | 0.904 | 0.919 | 0.806 | 0.676
9 | LU99A | 0.62 | 0.594 | 0.542 | 0.515 | 0.353 | 0.475 | 0.378 | 0.224 | 0.254 | 0.592 | 0.576 | 0.547 | 0.452 | 0.389 | 0.236 | 0.264 | 0.274 | 0.198 | 0.164
10 | LXF-289 | 0.68 | 0.64 | 0.668 | 0.606 | 1.05 | 1.14 | 1.07 | 0.952 | 0.473 | 0.676 | 0.769 | 0.671 | 0.67 | 0.462 | 1.07 | 0.978 | 0.875 | 0.714 | 0.523
11 | NCI-H520 | 0.773 | 0.816 | 0.686 | 0.544 |  |  |  |  |  | 0.493 | 0.806 | 0.758 | 0.528 | 0.494 | 0.336 | 0.346 | 0.272 | 0.237 | 0.149
12 | NCI-H661 | 0.596 | 0.534 | 0.525 | 0.466 |  |  |  |  |  | 0.607 | 0.631 | 0.534 | 0.599 | 0.436 | 0.696 | 0.721 | 0.641 | 0.567 | 0.339
13 | NCI-H1299 |  |  |  |  |  |  |  |  |  |  |  |  |  |  | 1.03 | 0.923 | 0.965 | 0.702 | 0.585
14 | NCI-H1650 | 0.543 | 0.521 | 0.504 | 0.371 |  |  |  |  |  | 0.535 | 0.497 | 0.575 | 0.526 | 0.39 | 0.828 | 0.967 | 0.819 | 0.527 | 0.363
15 | NCI-H1703 |  |  |  |  | 0.109 | 0.153 | 0.129 | 0.116 | 0.106 |  |  |  |  |  | 0.388 | 0.435 | 0.545 | 0.7 | 0.454
16 | NCI-H2009 | 0.345 | 0.303 | 0.234 | 0.175 |  |  |  |  |  | 0.264 | 0.273 | 0.221 | 0.245 | 0.256 | 0.673 | 0.695 | 0.639 | 0.486 | 0.434
17 | NCI-H2023 | 0.539 | 0.508 | 0.491 | 0.312 |  |  |  |  |  | 0.509 | 0.717 | 0.564 | 0.416 | 0.246 | 0.327 | 0.253 | 0.185 | 0.0826 | 0.0815
18 | NCI-H2228 | 0.591 | 0.487 | 0.52 | 0.35 |  |  |  |  |  | 0.578 | 0.615 | 0.449 | 0.48 | 0.454 | 0.633 | 0.749 | 0.613 | 0.254 | 0.176
19 | SK-LU-1 | 0.557 | 0.541 | 0.533 | 0.408 |  |  |  |  |  | 0.486 | 0.502 | 0.5 | 0.42 | 0.411 | 0.469 | 0.497 | 0.394 | 0.313 | 0.288
20 | SK-MES-1 | 0.546 | 0.521 | 0.494 | 0.324 |  |  |  |  |  | 0.474 | 0.518 | 0.458 | 0.426 | 0.395 | 0.576 | 0.646 | 0.801 | 0.596 | 0.467
21 | SW 1573 | 0.525 | 0.444 | 0.463 | 0.305 |  |  |  |  |  | 0.744 | 0.573 | 0.476 | 0.534 | 0.476 | 0.415 | 0.563 | 0.582 | 0.468 | 0.261
